According to US20230150929A1, “SELECTIVE NON-CYCLIC NUCLEOTIDE ACTIVATORS FOR THE CAMP SENSOR EPAC1” (The Board of Regents of The University of Texas System, priority 2020, published 2023):

Experiments:
Format in all cases: cell-based
[1] = biological target: T1, EPAC1 (Homo sapiens, UniProt O95398); experiment: EPAC1 immunoprecipitation with activation-selective antibody in HEK293T cells; set-up: expressed in transfected cells; conditions: versus vehicle-treated control, FIG. 10
T1 sequence (O95398 1-923): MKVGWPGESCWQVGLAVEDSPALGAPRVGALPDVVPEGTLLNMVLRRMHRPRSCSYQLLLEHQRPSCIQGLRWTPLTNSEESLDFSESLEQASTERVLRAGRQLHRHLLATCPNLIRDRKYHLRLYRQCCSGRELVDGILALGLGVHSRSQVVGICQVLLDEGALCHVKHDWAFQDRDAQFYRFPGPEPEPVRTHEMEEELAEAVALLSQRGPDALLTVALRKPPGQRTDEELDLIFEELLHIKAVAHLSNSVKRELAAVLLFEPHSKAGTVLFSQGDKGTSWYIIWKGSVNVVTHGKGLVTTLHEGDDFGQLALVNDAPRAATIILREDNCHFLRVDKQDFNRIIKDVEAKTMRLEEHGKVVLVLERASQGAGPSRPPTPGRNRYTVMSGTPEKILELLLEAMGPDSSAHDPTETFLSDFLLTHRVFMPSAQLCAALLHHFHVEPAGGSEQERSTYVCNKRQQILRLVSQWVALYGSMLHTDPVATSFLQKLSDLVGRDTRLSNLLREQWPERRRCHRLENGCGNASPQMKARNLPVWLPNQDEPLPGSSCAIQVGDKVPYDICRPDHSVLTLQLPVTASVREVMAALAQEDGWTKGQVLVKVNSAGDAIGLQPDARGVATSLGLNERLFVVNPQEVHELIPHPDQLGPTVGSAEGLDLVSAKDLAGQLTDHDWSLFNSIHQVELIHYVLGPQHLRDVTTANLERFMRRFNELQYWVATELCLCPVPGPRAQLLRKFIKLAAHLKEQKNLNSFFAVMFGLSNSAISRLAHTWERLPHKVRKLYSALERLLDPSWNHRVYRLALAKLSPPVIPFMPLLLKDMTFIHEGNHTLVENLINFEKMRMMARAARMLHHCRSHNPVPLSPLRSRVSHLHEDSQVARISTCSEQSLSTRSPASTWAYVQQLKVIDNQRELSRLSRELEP
Description: FIG. 10. Ability of selected compounds to interact with EPAC1 in cells. HEK293T cells stably transfected with EPAC1 were treated with hit compounds from the screen. EPAC1 was immunoprecipitated from cell lysates using an activation-selective antibody, visualized by western blotting and its levels were quantified densitometrically. Cyclic nucleotide EPAC1 agonist 2 was used as positive control. […] Data from at least three independent experiments are presented in the bar graph as mean ± SEM with significant increases in immunoprecipitated EPAC1 levels in comparison to vehicle-treated control indicated; ^∗∗ p < 0.01, ^∗∗∗ p < 0.001.
(§1) SDS-PAGE and Western Blotting. Samples were prepared by mixing equal volumes of cell lysate and 2x SDS sample loading buffer and denaturing for 5 min at 95° C., unless indicated otherwise. Protein samples were separated by SDS-PAGE on 10% (v/v) polyacrylamide gels, for EPAC1 and VASP, or on 12.5% (v/v), for Rap1, and then transferred to nitrocellulose membranes. Membranes were then blocked for 1 h at room temperature in 5% (w/v) non-fat dry milk or 5% (w/v) BSA in Tris-buffered saline containing 0.1% (v/v) Tween 20, followed by an overnight incubation with primary antibody diluted in blocking buffer at 4° C. Subsequently, the membranes were incubated with appropriate horseradish peroxidase-conjugated secondary antibodies for 1 h at room temperature. For signal detection the SuperSignal West Pico PLUS Chemiluminescent Substrate (Thermo Scientific) was used. Images were acquired using the Fusion FX7 camera platform (Vilber). Densitometry was performed with ImageJ.

[2] = biological target: T1, EPAC1; experiment: Active Rap1 pull-down in U2OS cells stably transfected with EPAC1; set-up: expressed in transfected cells; host or cells: U2OS cells (from Professor Holger Rehmann, University of Utrecht); conditions: for Rap1 activation in EPAC1 cells: U2OS-EPAC1, 100 µM compound, 10 min, FIG. 7; for activation of EPAC1 by compound 2 (Rap1-GTP levels): U2OS-EPAC1 cells, in the presence of EPAC1 agonist 2 (007), FIG. 4
Description: Series Expansion and EPAC1 vs EPAC2 Selectivity. GEF assay was used to further screen all newly synthesis analogues at 10 µM, to identify additional activating compounds to expand the series of EPAC1 agonists (FIG. 6). […] Having now identified an expanded exemplary series of compounds as potential EPAC1 activators the ability of 25e, 25f, 25g, 25n and 25u to activate EPAC1 and EPAC2 in cellular Rap1 activation assays (FIG. 7) were compared. For these U2OS cells transfected with either EPAC1 or EPAC2 (FIG. 7) was used. […] Densitometry was carried out on all immunoblots and the ratio of EPAC1 to EPAC2 activation was calculated and presented in a bar graph in FIG. 8.
Active Rap1 Pull-down. U2OS cells (from Professor Holger Rehmann, University of Utrecht) stably transfected with EPAC1 or EPAC2 were cultured in 6-well plates in DMEM, high glucose, supplemented with 10% (v/v) FBS, 1% (v/v) GlutaMAX, 1% (v/v) Penicillin-Streptomycin and 2 mg/l puromycin (to ensure selection of stable transfectants). 80% confluent cells were starved in culture medium with reduced FBS concentration (0.5 %) for 16 h and then stimulated for 10 min with either vehicle, 100 µM of studied compounds, or 50 µM of 2 in case of U2OS-EPAC1 or 100 µM of compound 4 for U2OS-EPAC2. Cells were then rinsed with ice-cold PBS and lysed in 0.5 ml cell lysis buffer (Cell Signaling Technologies) supplemented with 10 mM MgCl2 and 1 mM PMSF, followed by clearing the lysates by centrifugation. Cell lysates were incubated for 1 h (4° C., gentle agitation) with 40 µg GST-RalGDS-RBD immobilized on Glutathione Sepharose 4B (GE Healthcare) to selectively capture GTP-bound Rap1. Later on, the glutathione resin was separated from supernatant by centrifugation, washed three times with cell lysis buffer, then resuspended in 2x SDS sample loading buffer and denatured for 5 min at 95° C.
as §1

[3] = test system: PKA; experiment: PKA activation (VASP phosphorylation, western blot) in U2OS-EPAC1 cells; conditions: 100 µM test compound, FIG. 5
Description: FIG. 5. PKA activation results of representative newly discovered EPAC1 agonists. U2OS cells stably transfected with EPAC1 were treated with 100 µM of test compounds, cyclic nucleotide EPAC1 agonist 2 or 10 µM of forskolin and rolipram (F/R), cyclic AMP elevating agents, as a positive control. Active, phosphorylated VASP (P-VASP) was visualized using a phospho-specific, anti-VASP antibody. None of the test compounds promoted VASP phosphorylation in cells.
PKA and GPCR Selectivity. To investigate the EPAC selectivity of these EPAC agonists, compounds 25g, 25n and 25q were selected for further PKA activation studies, and the results are shown in FIG. 5. PKA activation was assessed by monitoring phosphorylation state of a downstream PKA effector, vasodilator-stimulated phosphoprotein (VASP).
as §1

Rap1 activation in EPAC1 cells [2]	activation of EPAC1 by compound 2 (Rap1-GTP levels) [2]	Structure (SMILES)	EPAC1 immunoprecipitation with activation-selective antibody [1]	PKA activation (VASP phosphorylation) [3]
activate EPAC1 in cells	enhanced	COc1ccc2ccc(OCC(=O)NS(=O)(=O)c3ccc(N)cc3OC)cc2c1 [Compound 25n, N-((4-Amino-2-methoxyphenyl)sulfonyl)-2-((7-methoxynaphthalen-2-yl)oxy)acetamide]	significant increases in EPAC1 immunoprecipitation	did not induce any PKA activation
activate EPAC1 in cells	–	COc1ccc2ccc(OCC(=O)NS(=O)(=O)c3ccc4ccccc4c3)cc2c1 [Compound 25q, 2-((7-Methoxynaphthalen-2-yl)oxy)-N-(naphthalen-2-ylsulfonyl)acetamide]	significant increases in EPAC1 immunoprecipitation	did not induce any PKA activation
activate EPAC1 in cells	enhanced	COc1ccc(S(=O)(=O)NC(=O)COc2ccc3ccccc3c2)c(OC)c1 [Compound 25g, N-((2,4-Dimethoxyphenyl)sulfonyl)-2-(naphthalen-2-yloxy)acetamide]	significant increases in EPAC1 immunoprecipitation	did not induce any PKA activation
